# Marks after values point to notes of the source that are not given here.
# Experiments:
# blood leukocytes [1] = experiment: Leukocyte immunophenotyping of whole blood by flow cytometry; type: in vivo, rat; conditions: 4 hours after oleic acid
# Method: (§1) Animal model and colchicine administration. Male Wistar rats weighing 250-300 g were purchased from Charles River, St. Constant, Québec. They were divided in three groups: Sham+placebo (n=8), oleic acid+placebo (n=8) and oleic acid+colchicine (n=8). Oleic acid (150 mg/kg in 0.3 cc) was prepared daily as a mixture with 0.1% bovine serum albumin (BSA) dissolved in distilled water, stored and protected from light at room temperature. Colchicine (1 mg/kg) or distilled water (placebo) was administered by daily gavage (in a volume up to 2 ml/kg) for three days before the induction of the ALI model. On the beginning of the fourth day a last forth dose of colchicine or placebo was administered and rats immediately injected via a jugular vein cannula with oleic acid or with 0.1% BSA. There was no death in the sham group. There was one death in the oleic acid+placebo group 3 hours after injection of oleic acid and prior to any measurement.
# Leukocyte immunophenotyping. Using reverse pipetting, 100 μl of whole blood collected on EDTA-coated tubes were incubated with anti-CD32 to prevent FC-mediated non-specific binding according to the manufacturer's instructions. The panel of antibodies as well as the gating strategy were inspired by Barnett-Vanes and al., PLoS One 2016; 11:e0142520.
# Briefly, a panel of 11 antibodies (Table 1) was used to identify the neutrophils (CD45^+/SSChi/His48^+), the monocytes (CD45^+/SSC^lo/His48 ^hi or lo/CD43^hi or lo), the B lymphocytes (CD45^+/SSC^lo/CD45R^−B220^+), the T lymphocytes (CD45^+/SSC^lo/CD3^+/CD4^+ or CD8^+), and the natural killer cells (CD45^+/SSC^lo/CD161a^+). The whole blood samples were incubated with the antibodies for 20 minutes at room temperature and the BD Pharm Lyse solution was then added for 10 minutes to lyse the erythrocytes. Samples were stored at 4° C. until analysis by flow cytometry (LSRII BD Biosciences). Accucount (Spherotech) was added to establish a cell count per μl of blood. Data were analyzed on Diva software version 8.0.1 (BD Biosciences).
# oleic acid-induced ALI [2] = experiment: Oleic acid-induced ALI rat model: serum cytokine quantification; type: in vivo; conditions: 4 hours after oleic acid
# Method: as §1
# (§2) There was one surgical death in oleic acid+colchicine treatment by laceration of the jugular vein, prior to injection of oleic acid. Oleic acid was administered under ketamine/xylazine anesthesia by slow bolus injection over 30 seconds and the catheter was flushed with 0.3 ml of 0.1% BSA before and after injection. Four hours later, the animals were studied. Conscious unrestrained respiratory parameters were obtained by whole body plethysmography (Emka technologies). Rats were then anesthetized with 2.5% isoflurance and 100% oxygen (1 L/min) administered with a nose cone/face mask for a duration of 5 minutes before terminal exsanguination. 2 ml of arterial blood was collected through the thoracic aorta into a syringe containing lyophilized heparin for arterial blood gas assessment. The remaining blood was collected into EDTA Lavendar tubes for complete blood count and flow cytometry. Cytokines measurements were assessed with serum isolated with serum clot activator tubes.
# Serum cytokine quantification. Quantitative determination of serum IFN-γ, IL-1β, IL-4, IL-5, IL-6, KC/GRO, IL-10, IL-13, and TNF-α was done using the electrochemiluminescence-based Meso Scale Discovery (MSD) platform (Rockville, Md., USA). Proteins levels were measured in a multiplex assay using the V-PLEX Proinflammatory Panel 2 Rat kit (MSD). Samples were diluted 1:5 in proprietary buffer (MSD) and measured. Data were acquired using a MESO QuickPlex SQ 120 plate reader (MSD) and protein concentrations were determined using the MSD Discovery Workbench 4.0 analysis software. All values reported are between the lower and the upper limits of quantification of the kit. Quantitative determination of serum Cit-H3 was measured by a commercially available ELISA kit (Cayman Chemical, 501620, Ann Arbor, Mich., USA).
# oleic acid-induced ALI [3] = experiment: Lung tissue mRNA expression of 27 markers of inflammation and injury by RT-qPCR; type: in vivo; conditions: rat lung, 4 hours after oleic acid; colchicine versus OA control
# Method: Animal model and colchicine administration. Male Wistar rats weighing 250-300 g were purchased from Charles River, St. Constant, Québec. They were divided in three groups: Sham+placebo (n=8), oleic acid+placebo (n=8) and oleic acid+colchicine (n=8). Oleic acid (150 mg/kg in 0.3 cc) was prepared daily as a mixture with 0.1% bovine serum albumin (BSA) dissolved in distilled water, stored and protected from light at room temperature. Colchicine (1 mg/kg) or distilled water (placebo) was administered by daily gavage (in a volume up to 2 ml/kg) for three days before the induction of the ALI model. […]
# (§3) The lungs were excised for analysis: the left lung was cannulated and perfusion-fixed with 10% buffered formalin for histology and immunohistochemistry. […] Pulmonary edema was measured from the ratio of total divided by dry weight of the right lung. Total weight, including water, was measured and lung tissue was dried in an oven at 60° C. for 5 days and reweighed as dry weight.
# Tissue homogenization, RNA extraction, RT-PCR, and real-time PCR. […] RNA integrity and quantity were assessed using a 2100 Bioanalyzer Instrument (Agilent, Santa Clara, Calif.). […] The geometric mean of housekeeping genes ACTB, GAPDH, and XBP1 was used as an internal control to normalize the variability in expression levels which were analyzed using the 2^−ΔΔCT method. […]
# oleic acid-induced ALI [4] = experiment: Oleic acid-induced ALI rat model: lung edema and arterial blood gas; type: in vivo
# Method: as §1
# as §2, with “2 ml of arterial blood was collected through the thoracic aorta into a syringe containing lyophilized heparin for arterial blood gas assessment. The remaining blood was collected into EDTA Lavendar tubes for complete blood count and flow cytometry.” left out
# as §3
# blood leukocytes [5] = experiment: In vitro LPS challenge of blood leukocytes from treated rats (CD11b flow cytometry); type: in vivo; conditions: rat whole blood at sacrifice, LPS 500 ng/mL in vitro, 30 minutes
# Method: as §1
# In vitro LPS challenge of blood leukocytes. Whole blood samples collected on EDTA-coated tubes were incubated, or not, with LPS (500 ng/mL) for 30 minutes at 37° C. […] Data were analyzed on Diva software version 8.0.1 (BD Biosciences).
# oleic acid-induced ALI [6] = experiment: Oleic acid-induced ALI rat model: blood cell counts and biochemistry; type: in vivo; conditions: OA + colchicine 1 mg/kg gavage, 4 hours after oleic acid, mean ± SEM
# Method: as §1, §2
# oleic acid-induced ALI [7] = experiment: Oleic acid-induced ALI rat model: conscious respiratory parameters by whole body plethysmography; type: in vivo; conditions: OA + colchicine 1 mg/kg gavage, 4 hours after oleic acid, mean ± SEM
# Method: as §1
# There was one surgical death in oleic acid+colchicine treatment by laceration of the jugular vein, prior to injection of oleic acid. Oleic acid was administered under ketamine/xylazine anesthesia by slow bolus injection over 30 seconds and the catheter was flushed with 0.3 ml of 0.1% BSA before and after injection. Four hours later, the animals were studied. […] Cytokines measurements were assessed with serum isolated with serum clot activator tubes.
# oleic acid-induced ALI [8] = experiment: Oleic acid-induced ALI rat model: lung histology and immunohistology (HPS, MPO, Cit-H3); type: in vivo; conditions: colchicine 1 mg/kg gavage, 4 hours after oleic acid
# Method: as §1
# Lung histology and immunohistology. All histological and immunohistological procedures were performed by the same person blinded to treatment assignment. The left lung was cannulated and perfused with 10% formalin PBS-buffered solution and fixed for 5 days. Tissues were dehydrated by incubating in a series of solutions with an increased ethanol content (70, 95, and 100%), followed by xylene, and embedded in paraffin. The specimens were cut into 6-μm sections, mounted on charged slides and processed with hematoxylin phloxine saffron (HPS) staining.
# Immunohistological procedures were initiated by incubating the slides in citrate antigen retrieval (pH 6.0) and endogenous peroxidase blocking (3% hydrogen peroxide). Sections were then blocked by incubating in PBS containing 10% normal goat serum (same species as secondary antibody) for 60 minutes. Slides were incubated with a rabbit polyclonal anti-myeloperoxidase (MPO, Pa5-16672; ThermoFisher, MA USA) for neutrophil detection, with a rabbit polyclonal anti-histone H3 citrulline R2+R8+R17, (Cit-H3, ab5103; ABCAM, Cambridge, United Kingdom) for NETosis and primary antibodies were omitted for negative controls. After washing, sections were incubated with a biotinylated secondary antibody (Vector Laboratories, Burlingame, Calif.) for 30 minutes, washed, then incubated with avidin-biotin complex (ABC kit) and visualized using diaminobenzidine substrate (Vector Laboratories) (27-29).
# The HPS slides were scanned to get a picture of the whole left lung (Super coolscan 5000; Nikon, Tokyo Japan). Using a brightfield microscope (BX45, Olympus, Richmond Hill, ON, Canada), images were acquired under 200× magnification on the most damaged/altered regions, acquiring 5 fields per slide for the HPS staining and 10 fields per slide for IHC (MPO and Cit-H3) staining. For the HPS staining, the following analyses were performed: 1) thickness of alveolar membranes, 2) percentage (%) of altered lung tissue, and 3) injury score of the lungs.
# To assess the thickness of alveolar membranes, 20 measurements per field were performed (corresponding to 100 measurements per slide) and were expressed as the mean thickness (μm) of the alveolar membranes. A morphometric analysis has been performed to assess the percentage of altered lung tissue over total lung area (excluding trachea, major bronchi, and blood vessels >700 μm diameter). To evaluate lung injury, we used an adapted version of the standardized histology score from the American Thoracic Society Documents (30). […]
# [9] = colchicine 1 mg/kg gavage, 4 hours after oleic acid, versus OA control
# [10] = rat left lung, HPS staining, mean±SEM
structure (smiles),measurement,setting,value
COc1cc2c(c(OC)c1OC)-c1ccc(OC)c(=O)cc1[C@@H](NC(C)=O)CC2 [colchicine],cell surface CD4 and CD8 on respective lymphocyte sub-populations,blood leukocytes [1]; rat blood,normalized
same,lymphocytes counts on flow cytometry,blood leukocytes [1]; rat blood,no change
same,neutrophil count on flow cytometry,blood leukocytes [1]; rat blood,increase in neutrophils that was significant
same,His48 fluorescence of neutrophils,blood leukocytes [1]; unstimulated rat blood,normalized
same,"other cytokines measured: Cit-H3, INF-γ, IL-10, IL-13, IL-4 and IL-5",oleic acid-induced ALI [2],no change
same,serum IL-6 level,oleic acid-induced ALI [2]; colchicine versus OA control,trend towards reduced
same,serum KC/GRO,oleic acid-induced ALI [2]; colchicine versus OA control,non-significantly reduced
same,serum TNF-α,oleic acid-induced ALI [2]; colchicine versus OA control,non-significantly reduced
same,lung tissue mRNA expression of 27 genes involved in inflammatory responses and injury,oleic acid-induced ALI [3],no individual statistically significant effect
same,PaO2 (equivalent to PaO2/FiO2),"oleic acid-induced ALI [4]; colchicine 1 mg/kg daily gavage, 4 doses before oleic acid 150 mg/kg iv, 4 hours later, 100% FiO2, mean±SEM",246±45 mmHg
same,"lung edema (pulmonary edema, total/dry lung weight ratio)",oleic acid-induced ALI [4]; [9],reduced
same,respiratory acidosis,oleic acid-induced ALI [4]; [9],reduced
same,response to LPS stimulation (cell surface CD11b MFI) in leukocytes and granulocytes,blood leukocytes [5],restored the normal response
same,Calcium,oleic acid-induced ALI [6]; corrected for pH,1.40 ± 0.01 mmol/L
same,Bicarbonate,oleic acid-induced ALI [6],27.6 ± 0.8 mmol/L
same,Lactate,oleic acid-induced ALI [6],2.4 ± 0.53 mmol/L
same,Leukocytes,oleic acid-induced ALI [6],4.90 ± 0.68** 10^9/L
same,Neutrophils,oleic acid-induced ALI [6],2.71 ± 0.36** 10^9/L
same,Peek expiratory flow,oleic acid-induced ALI [7],13.19 ± 1.41
same,Peek inspiratory flow,oleic acid-induced ALI [7],17.75 ± 2.72 mL/s
same,relative reduction of histological lung injury (injured area) versus oleic acid ALI group,"oleic acid-induced ALI [8]; rat left lung, HPS staining",61%
same,Mean alveolar wall thickness,oleic acid-induced ALI [8]; [10],7.8±1.1 μm
same,lung injury score (maximum score of 70),oleic acid-induced ALI [8]; [10],28.7±5.0
same,proportion of injured area (altered lung tissue over total lung area),oleic acid-induced ALI [8]; [10],9.6±3.1%
same,"NETosis (Cit-H3 immunostaining intensity), increase over basal level","oleic acid-induced ALI [8]; rat lung, oleic acid alone 63%",35%

# Source: patent US11844771B2, “Methods of treating acute respiratory distress syndrome using colchicine” (INSTITUT DE C[…] MONTREAL, priority 2021, dated 2023)
